Data published in paper PMC9823097, “Dysregulation of PRMT5 in chronic lymphocytic leukemia promotes progression with high risk of Richter’s transformation” (Nature Communications, 2023).

Columns and labels:
[1] = test system: HG3 cells; assay: Cell growth curves over 12 days, HG3; assay type: cell-based
Method: (§1) Live cells/mL were counted on days 3, 6, 10, and 12. […] The split factor was calculated at indicated time points by dividing the counted cells/mL by 3E5. Cell growth was extrapolated over time by multiplying the subsequent cell count by the previous split factor. Cell growth is plotted as fold change relative to DMSO-treated cells.

[2] = test system: Mec-1 cells; assay: Cell growth curves over 12 days, Mec-1; assay type: cell-based; conditions: Mec-1, 1 nM
Method: as §1

SMILES: O=C(NC[C@H](O)CN1CCc2ccccc2C1)c1cc(NC2COC2)ncn1 [EPZ015666]
- Rep 1 Live Cells [Fold Change] ([1]; HG3, 1 nM, day 0): 1 Fold Change
- Rep 2 Live Cells [Fold Change] ([1]; HG3, 1 nM, day 0): 1 Fold Change
- Rep 1 Live Cells [Fold Change] ([1]; HG3, 1 nM, day 3): 5.41 Fold Change
- Rep 2 Live Cells [Fold Change] ([1]; HG3, 1 nM, day 3): 6.183 Fold Change
- Rep 1 Live Cells [Fold Change] ([1]; HG3, 1 nM, day 6): 37.87 Fold Change
- Rep 2 Live Cells [Fold Change] ([1]; HG3, 1 nM, day 6): 41.0161 Fold Change
- Rep 1 Live Cells [Fold Change] ([1]; HG3, 1 nM, day 10): 230.663 Fold Change
- Rep 2 Live Cells [Fold Change] ([1]; HG3, 1 nM, day 10): 364.018 Fold Change
- Rep 1 Live Cells [Fold Change] ([1]; HG3, 1 nM, day 12): 1359.37 Fold Change
- Rep 2 Live Cells [Fold Change] ([1]; HG3, 1 nM, day 12): 2238.71 Fold Change
- Rep 1 Live Cells [Fold Change] ([1]; HG3, 10 nM, day 0): 1 Fold Change
- Rep 2 Live Cells [Fold Change] ([1]; HG3, 10 nM, day 0): 1 Fold Change
- Rep 1 Live Cells [Fold Change] ([1]; HG3, 10 nM, day 3): 6.05 Fold Change
- Rep 2 Live Cells [Fold Change] ([1]; HG3, 10 nM, day 3): 5.567 Fold Change
- Rep 1 Live Cells [Fold Change] ([1]; HG3, 10 nM, day 6): 44.77 Fold Change
- Rep 2 Live Cells [Fold Change] ([1]; HG3, 10 nM, day 6): 36.2761 Fold Change
- Rep 1 Live Cells [Fold Change] ([1]; HG3, 10 nM, day 10): 317.46 Fold Change
- Rep 2 Live Cells [Fold Change] ([1]; HG3, 10 nM, day 10): 308.347 Fold Change
- Rep 1 Live Cells [Fold Change] ([1]; HG3, 10 nM, day 12): 1720.21 Fold Change
- Rep 2 Live Cells [Fold Change] ([1]; HG3, 10 nM, day 12): 1505.76 Fold Change
- Rep 1 Live Cells [Fold Change] ([1]; HG3, 100 nM, day 0): 1 Fold Change
- Rep 2 Live Cells [Fold Change] ([1]; HG3, 100 nM, day 0): 1 Fold Change
- Rep 3 Live Cells [Fold Change] ([1]; HG3, 100 nM, day 0): 1 Fold Change
- Rep 4 Live Cells [Fold Change] ([1]; HG3, 100 nM, day 0): 1 Fold Change
- Rep 1 Live Cells [Fold Change] ([1]; HG3, 100 nM, day 3): 5.29 Fold Change
- Rep 2 Live Cells [Fold Change] ([1]; HG3, 100 nM, day 3): 5.42 Fold Change
- Rep 3 Live Cells [Fold Change] ([1]; HG3, 100 nM, day 3): 7.7 Fold Change
- Rep 4 Live Cells [Fold Change] ([1]; HG3, 100 nM, day 3): 8.317 Fold Change
- Rep 1 Live Cells [Fold Change] ([1]; HG3, 100 nM, day 6): 34.2087 Fold Change
- Rep 2 Live Cells [Fold Change] ([1]; HG3, 100 nM, day 6): 34.688 Fold Change
- Rep 3 Live Cells [Fold Change] ([1]; HG3, 100 nM, day 6): 44.4033 Fold Change
- Rep 4 Live Cells [Fold Change] ([1]; HG3, 100 nM, day 6): 58.2167 Fold Change
- Rep 1 Live Cells [Fold Change] ([1]; HG3, 100 nM, day 10): 327.781 Fold Change
- Rep 2 Live Cells [Fold Change] ([1]; HG3, 100 nM, day 10): 304.216 Fold Change
- Rep 3 Live Cells [Fold Change] ([1]; HG3, 100 nM, day 10): 521.739 Fold Change
- Rep 4 Live Cells [Fold Change] ([1]; HG3, 100 nM, day 10): 589.444 Fold Change
- Rep 1 Live Cells [Fold Change] ([1]; HG3, 100 nM, day 12): 1552.37 Fold Change
- Rep 2 Live Cells [Fold Change] ([1]; HG3, 100 nM, day 12): 1763.75 Fold Change
- Rep 3 Live Cells [Fold Change] ([1]; HG3, 100 nM, day 12): 1182.61 Fold Change
- Rep 4 Live Cells [Fold Change] ([1]; HG3, 100 nM, day 12): 2564.08 Fold Change
- Rep 1 Live Cells [Fold Change] ([1]; HG3, 1 µM, day 0): 1 Fold Change
- Rep 2 Live Cells [Fold Change] ([1]; HG3, 1 µM, day 0): 1 Fold Change
- Rep 3 Live Cells [Fold Change] ([1]; HG3, 1 µM, day 0): 1 Fold Change
- Rep 4 Live Cells [Fold Change] ([1]; HG3, 1 µM, day 0): 1 Fold Change
- Rep 1 Live Cells [Fold Change] ([1]; HG3, 1 µM, day 3): 4.22 Fold Change
- Rep 2 Live Cells [Fold Change] ([1]; HG3, 1 µM, day 3): 4.83 Fold Change
- Rep 3 Live Cells [Fold Change] ([1]; HG3, 1 µM, day 3): 7.35 Fold Change
- Rep 4 Live Cells [Fold Change] ([1]; HG3, 1 µM, day 3): 8.167 Fold Change
- Rep 1 Live Cells [Fold Change] ([1]; HG3, 1 µM, day 6): 27.219 Fold Change
- Rep 2 Live Cells [Fold Change] ([1]; HG3, 1 µM, day 6): 35.0658 Fold Change
- Rep 3 Live Cells [Fold Change] ([1]; HG3, 1 µM, day 6): 34.79 Fold Change
- Rep 4 Live Cells [Fold Change] ([1]; HG3, 1 µM, day 6): 45.4611 Fold Change
- Rep 1 Live Cells [Fold Change] ([1]; HG3, 1 µM, day 10): 173.707 Fold Change
- Rep 2 Live Cells [Fold Change] ([1]; HG3, 1 µM, day 10): 145.701 Fold Change
- Rep 3 Live Cells [Fold Change] ([1]; HG3, 1 µM, day 10): 233.093 Fold Change
- Rep 4 Live Cells [Fold Change] ([1]; HG3, 1 µM, day 10): 381.873 Fold Change
- Rep 1 Live Cells [Fold Change] ([1]; HG3, 1 µM, day 12): 608.205 Fold Change
- Rep 2 Live Cells [Fold Change] ([1]; HG3, 1 µM, day 12): 463.207 Fold Change
- Rep 3 Live Cells [Fold Change] ([1]; HG3, 1 µM, day 12): 924.602 Fold Change
- Rep 4 Live Cells [Fold Change] ([1]; HG3, 1 µM, day 12): 1559.32 Fold Change
- effect on growth potential (cell growth) ([1]; HG3, continuous exposure over 12 days): No changes in growth potential
- Rep 1 Live Cells [Fold Change] ([2]; day 0): 1 Fold Change
- Rep 2 Live Cells [Fold Change] ([2]; day 0): 1 Fold Change
- Rep 1 Live Cells [Fold Change] ([2]; day 3): 8.617 Fold Change
- Rep 2 Live Cells [Fold Change] ([2]; day 3): 9.35 Fold Change
- Rep 1 Live Cells [Fold Change] ([2]; day 6): 72.0928 Fold Change
- Rep 2 Live Cells [Fold Change] ([2]; day 6): 74.5 Fold Change
- Rep 1 Live Cells [Fold Change] ([2]; day 10): 633.719 Fold Change
